From patent publication EP2842558A1, “CGRP RESP[…]” (Kao Corporation, priority 2012, dated 2013)

Test system: Normal human coronary artery smooth muscle cells (HCASMC)
Test: Measurement of responsiveness to CGRP (intracellular cAMP EIA after 0.5 nM CGRP stimulation)
Assay type: cell-based
Conditions: lignan at predetermined concentrations during 60 min PDI infiltration and 15 min 0.5 nM CGRP stimulation, control = 0.5 nM CGRP only (100% = 1189.3 fmol/well), Dunnett's test, N = 3, Fig. 1
Experimental: Normal human coronary artery smooth muscle cells (HCASMC; Kurabo Industries, Ltd., cell lot #01272) were cultured in a growth medium (product obtained by adding 25 ml of FBS, 0.5 ml of hEGF, 0.5 ml of hFGF-B, 0.5 ml of insulin and 0.5 ml of an antibacterial agent to 500 ml of basal medium HuMedia-SB2; Kurabo Industries, Ltd). 0.025% Trypsin/0.01% EDTA was used for the passage. […]
The cells were washed twice with a basal medium (HuMedia-SB2; Kurabo Industries, Ltd.) containing phosphodiesterase inhibitors (PDI), IBMX (3-isobutyl-1-methylxanthine, 500 µM, Sigma-Aldrich Co.), Ro-20-1724 (100 µM; Wako Pure Chemical Industries, Ltd.), and a lignan compound shown below at a predetermined concentration. […] Termination of the reaction was carried out by adding a lysis buffer attached to a cAMP analysis EIA kit (cAMP EIA (non-acetylation); GE Healthcare Biosciences Corp.) to the cells, and the intracellular cAMP concentration ([cAMP]i) was measured according to the method described in the manual. […]
HCASMC (Kurabo Industries, Ltd., cell lot #01272) was prepared under the same conditions as those used in Example 1. […] Thereafter, the cellular responsiveness to CGRP was measured by the same method as that used in Example 1.

SMILES	cellular responsiveness to CGRP (Improve Index, percentage of [cAMP]i)
COc1cc([C@@H]2c3cc4c(c(OC)c3C[C@H]3COC(=O)[C@@H]32)OCO4)cc(OC)c1OC [TD-1]	significantly promoted the cellular responsiveness to CGRP in a concentration-dependent manner
COc1cc([C@@H]2c3cc4c(cc3C[C@H]3COC(=O)[C@@H]32)OCO4)cc(OC)c1OC [TD-2]	significantly promoted the cellular responsiveness to CGRP in a concentration-dependent manner
